Like-named read-outs stand apart in the source and are kept apart here. One block for each molecule: values may come before it.
Legend:
OCI-AML5 cells = assay: Dose-response proliferative assay in OCI-AML5 (4 days, CellTiterGlo); assay type: cell-based, H. sapiens; settings: read-out: IC50 in AML5
Procedure, shortened: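 OCI-AML5 cells in αMEM, 10% heat-inactivated FBS plus 10 ng/mL GM-CSF, 300 cells/well, exposed to 8-point 1:4 serial dilutions (10 μM down to 0.5 nM). Viability read after 4 days in culture at 37 °C, 5% CO2.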

cyclin KeGFP = assay: Cyclin KeGFP reporter system (eGFP/mCherry MFI by flow cytometry);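 note: 10 μM compound for 3 h relative to DMSO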; assay type: cell-based, H. sapiens; settings: cyclin K-eGFP reporter
Procedure, shortened: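 OCI-AML5 clone G7 carrying lentiviral cyclin KeGFP/mCherry reporter. eGFP and mCherry geometric MFI measured by flow cytometry; eGFP/mCherry ratio normalized to DMSO-treated cells.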

CDK1 = target: T1, CDK1 (Homo sapiens, UniProt P06493); assay: CDK1 in vitro kinase activity, single concentration 1 μM; assay type: biochemical; settings: single concentration 1 μM
T1 construct: purchased BPS Bioscience 79597
Experimental: (§1) Kinase activity was assessed using the kinase assay kits from BPS Bioscience for CDK1, CDK9 and CDK12 with Kinase Glo MAX in duplicates. Compounds were tested at a single concentration of 1 μM for CDK1 and CDK9 activity, and in a dilution ranging from 0.64 nM to 50 μM for CDK12 activity. Chemiluminescence was read using the Neo Synergy BioTek plate reader.

CDK9/CyclinT = target: T2, CDK9/CyclinT (Homo sapiens, UniProt P50750); assay: CDK9/CyclinT in vitro kinase activity, single concentration 1 μM; assay type: biochemical; settings: single concentration 1 μM
T2 construct: purchased BPS Bioscience 79628
Experimental: as §1

[1] = tested on: OCI-AML5 cells expressing shRNAs targeting CDK1, 2, 4, 7, 9, cyclin K; assay: Dose response in OCI-AML5 expressing shRNAs targeting CDK1, 2, 4, 7, 9, cyclin K or control; assay type: cell-based, H. sapiens; settings: for Class: class from shRNA IC50 profile and cyclin K-eGFP degradation
[2] = tested on: OCI-AML5 cells expressing shRNA targeting CUL4A or CUL4B; assay: Dose response in OCI-AML5 expressing shRNAs targeting CUL4A, CUL4B or control; assay type: cell-based, H. sapiens; settings: ratio of IC50 in shCUL4A vs shCTRL OCI-AML5 cells

T2 sequence (P50750 whole entry): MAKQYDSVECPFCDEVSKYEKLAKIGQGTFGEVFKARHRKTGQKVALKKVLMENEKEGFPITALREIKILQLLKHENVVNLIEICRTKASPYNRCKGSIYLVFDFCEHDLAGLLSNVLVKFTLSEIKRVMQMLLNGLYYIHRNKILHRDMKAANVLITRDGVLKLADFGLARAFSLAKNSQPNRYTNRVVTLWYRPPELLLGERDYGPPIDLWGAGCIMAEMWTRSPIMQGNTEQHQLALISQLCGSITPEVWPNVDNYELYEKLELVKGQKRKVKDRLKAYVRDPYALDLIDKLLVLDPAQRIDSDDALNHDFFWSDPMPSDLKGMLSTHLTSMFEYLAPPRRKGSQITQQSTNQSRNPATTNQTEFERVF
T2 sequence (O60563 whole entry partner): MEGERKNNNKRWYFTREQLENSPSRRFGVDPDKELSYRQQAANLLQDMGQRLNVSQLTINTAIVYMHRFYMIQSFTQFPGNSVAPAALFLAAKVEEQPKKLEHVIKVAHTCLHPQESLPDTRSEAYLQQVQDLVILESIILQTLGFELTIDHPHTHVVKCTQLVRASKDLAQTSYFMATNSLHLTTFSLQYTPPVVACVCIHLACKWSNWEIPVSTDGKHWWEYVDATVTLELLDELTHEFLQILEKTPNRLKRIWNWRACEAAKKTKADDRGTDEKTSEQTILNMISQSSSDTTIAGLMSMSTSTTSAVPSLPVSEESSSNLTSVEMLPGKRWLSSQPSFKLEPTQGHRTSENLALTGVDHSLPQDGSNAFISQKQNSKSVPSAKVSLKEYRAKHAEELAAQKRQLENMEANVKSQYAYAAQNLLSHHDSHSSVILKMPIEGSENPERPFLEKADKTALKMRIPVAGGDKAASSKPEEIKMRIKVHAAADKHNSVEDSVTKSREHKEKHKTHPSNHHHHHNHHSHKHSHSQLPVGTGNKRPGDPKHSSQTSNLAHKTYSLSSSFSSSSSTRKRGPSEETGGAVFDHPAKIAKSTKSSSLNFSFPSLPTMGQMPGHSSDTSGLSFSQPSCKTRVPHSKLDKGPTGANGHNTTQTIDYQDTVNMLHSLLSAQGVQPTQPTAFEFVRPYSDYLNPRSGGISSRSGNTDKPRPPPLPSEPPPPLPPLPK
T1 sequence (P06493 whole entry): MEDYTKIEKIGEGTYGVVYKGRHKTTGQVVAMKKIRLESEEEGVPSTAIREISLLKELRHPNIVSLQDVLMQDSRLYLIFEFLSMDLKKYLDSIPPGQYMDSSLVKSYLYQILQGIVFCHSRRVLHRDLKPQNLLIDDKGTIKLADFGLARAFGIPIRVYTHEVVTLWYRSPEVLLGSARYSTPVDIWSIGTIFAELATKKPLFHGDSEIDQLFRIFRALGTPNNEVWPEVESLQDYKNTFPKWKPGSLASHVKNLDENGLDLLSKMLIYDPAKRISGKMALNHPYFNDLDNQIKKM
T1 sequence (P14635 whole entry partner): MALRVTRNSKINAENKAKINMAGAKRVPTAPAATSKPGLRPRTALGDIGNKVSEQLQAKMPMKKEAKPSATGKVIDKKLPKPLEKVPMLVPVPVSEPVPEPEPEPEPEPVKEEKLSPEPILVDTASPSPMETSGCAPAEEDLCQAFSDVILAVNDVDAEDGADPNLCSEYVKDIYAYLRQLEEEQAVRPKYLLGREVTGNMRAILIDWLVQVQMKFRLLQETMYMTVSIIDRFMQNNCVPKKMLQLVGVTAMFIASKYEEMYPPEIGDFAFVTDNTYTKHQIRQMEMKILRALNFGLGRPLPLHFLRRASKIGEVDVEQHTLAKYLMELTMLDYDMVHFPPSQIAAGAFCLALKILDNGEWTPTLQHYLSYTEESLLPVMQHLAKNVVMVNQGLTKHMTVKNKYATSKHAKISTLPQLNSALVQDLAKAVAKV

IC50 (OCI-AML5 cells; OCI-AML5 cells): 2380 nM | % CDK1 inhibition (CDK1): 79% | % CDK9 inhibition (CDK9/CyclinT): 24% | IC50 ([1]; OCI-AML5 expressing shRNA CCNK (cyclin K), read-out: IC50 shRNA CCNK): 2530 nM | IC50 ([1]; OCI-AML5 expressing shRNA CDK1, read-out: IC50 shRNA CDK1): 815 nM | IC50 ([1]; OCI-AML5 expressing shRNA CDK2, read-out: IC50 shRNA CDK2): 2690 nM | IC50 ([1]; OCI-AML5 expressing shRNA CDK4, read-out: IC50 shRNA CDK4): 3280 nM | IC50 ([1]; OCI-AML5 expressing shRNA CDK7, read-out: IC50 shRNA CDK7): 2900 nM | IC50 ([1]; OCI-AML5 expressing shRNA CDK9, read-out: IC50 shRNA CDK9): 1660 nM
Structure (SMILES): O=C(Cc1ccccc1)Nc1ncc(SCc2cccnc2)s1 [UOM-005190]
% degradation cyclin K-eGFP (cyclin KeGFP): 26% | Class [1]: 2 | Ratio shCUL4A/shCTRL [2]: 1.19

IC50 (OCI-AML5 cells; Homo sapiens, OCI-AML-5, OCI-AML5 cells): 422 nM | inhibition at 1 µM (CDK1): 25% | inhibition at 1 µM (CDK9/CyclinT): 67% | IC50 ([1]; Homo sapiens, OCI-AML-5, OCI-AML5 expressing shRNA CCNK (cyclin K), read-out: IC50 shRNA CCNK): 148 nM | IC50 ([1]; Homo sapiens, OCI-AML-5, OCI-AML5 expressing shRNA CDK1, read-out: IC50 shRNA CDK1): 493 nM | IC50 ([1]; Homo sapiens, OCI-AML-5, OCI-AML5 expressing shRNA CDK2, read-out: IC50 shRNA CDK2): 457 nM | IC50 ([1]; Homo sapiens, OCI-AML-5, OCI-AML5 expressing shRNA CDK4, read-out: IC50 shRNA CDK4): 408 nM | IC50 ([1]; Homo sapiens, OCI-AML-5, OCI-AML5 expressing shRNA CDK7, read-out: IC50 shRNA CDK7): 525 nM | IC50 ([1]; Homo sapiens, OCI-AML-5, OCI-AML5 expressing shRNA CDK9, read-out: IC50 shRNA CDK9): 367 nM
Structure (SMILES): O=C(Cc1ccc(-c2ccccc2)cc1)Nc1ncc(SCc2cccnc2)s1 [UOM-005429]
% degradation cyclin K-eGFP (cyclin KeGFP): 80% | Class [1]: 1 | Ratio shCUL4A/shCTRL [2]: 2.25

Reference: publication PMC12152147, “DDB1 engagement defines the selectivity of S656 analogs for cyclin K degradation over CDK inhibition” (EMBO Reports, 2025)
